Test results as given in ChEMBL document CHEMBL1136284, “An aminopyridazine-based inhibitor of a pro-apoptotic protein kinase attenuates hypoxia-ischemia induced acute brain injury” (Bioorg Med Chem Lett, 2003).

Tests used:
[1] = Inhibition of Death associated protein kinase
[2] = Displacement of ATP from Death associated protein kinase
Protein kinase C (PKC) = assay: Inhibition of Protein kinase C; assay type: protein assay
[3] = target: cAMP-dependent protein kinase (PKA) (Homo sapiens, UniProt P22694+P17612+P22612); assay: Inhibition of Protein kinase A; assay type: protein assay
Rattus norvegicus [4] = species: Rattus norvegicus; assay: Brain hemisphere weight loss 6 hr after HI injury in rats
Rattus norvegicus [5] = assay: Brain hemisphere weight loss after 5 mg/kg ip administration prior to HI injury in rats; settings: route intraperitoneal
CaM kinase II = CaM kinase II (Homo sapiens, UniProt Q13557+Q13555+Q13554+Q9UQM7); assay: Inhibition of Calcium/calmodulin-dependent protein kinase type II; assay type: protein assay

IC50 (Protein kinase C (PKC))	IC50 [3]	IC50 (CaM kinase II)	Structure (SMILES)	IC50 [1]	Ki [1]	Ki [2]	Weight loss (Rattus norvegicus [4])	Weight loss (Rattus norvegicus [5])
> 100 µM	> 100 µM	–	N=c1cc2c(nn1CCCCCCCCCCC(=O)Nc1ccc(-c3ccccc3)nn1)-c1ccccc1CC2	13 µM	15 µM	20 µM	21.6%	17.3%
3 µM	> 100 µM	> 100 µM	N=c1ccc(-c2ccccc2)nn1CCCCCCCCCCC(=O)Nc1ccc(-c2ccccc2)nn1	22 µM	–	–	–	–
31 µM	> 100 µM	> 100 µM	Cc1ccc(=N)n(CCCCCCCCCCC(=O)Nc2ccc(-c3ccccc3)nn2)n1	> 100 µM	–	–	–	–
> 100 µM	> 100 µM	> 100 µM	Cc1cc(-c2ccccc2)nnc1NCCN1CCOCC1 [MINAPRINE]	> 100 µM	–	–	–	–
